≈ marks a conversion by molar mass, not a printed value. Read-outs that look alike come from different tables or passages of the source.
Legend:
[1] = tested on: E. faecalis; assay: CLSI reference method of microdilution; details: for MIC: Enterococcus faecalis, read-out: MIC reported by Microdilution
[2] = tested on: E. faecalis; assay: Antibiotic susceptibility testing by the method of the present invention (AuNP-GOx-Ab nanoprobes, absorbance at 545 nm); type: cell-based; details: Patient two sample infected with E. faecalis, antibiotic at EUCAST breakpoint concentration of Table 1
Experimental: (§1) 250 μL of urine sample was mixed with 250 μL of 2× Mueller-Hinton broth in autoclaved Eppendorf tubes. Respective concentrations of antibiotics as recited in Table 1 were added in each tubes along with one tube without antibiotic which served as a control for monitoring the growth of bacteria. 7-10 μL of the nanoprobes (AuNP-GOx-Ab) prepared in the Example 2 above was added to the mixture and allowed to incubate at 37° C. for 90 minutes to allow growth of bacteria. The solution was then passed through a membrane filter with a pore size of about 450 nm diameter to separate the bacteria bound to the nanoprobes from the unbound ones. The bacteria bound nanoprobes (nanoprobe-bacteria complex) captured on the membrane surface were then recovered by injecting 250 μL of sodium acetate buffer (10 mM, pH 5.1) from the opposite direction.
(§2) 250 μL of the recovered bacteria-nanoprobe complexes were then incubated at 37° C. for 10 minutes with 50 μL glucose solution (final concentration 100 mM) for production of hydrogen peroxide. […] Finally, the growth of seed nanoparticles and the intensity of colour formed were determined by recording an absorption spectrum for each sample. […]

[3] = tested on: E. coli; assay: VITEK automated susceptibility test; type: cell-based; details: for MIC: Escherichia coli, read-out: MIC reported by VITEK
Text: (§3) The AST market has several products based on the method they employ for testing that include automated systems, discs, MIC strips and media. Most extensively used method to determine antibiotic susceptibility involve culture tests based on the phenotypic growth of the bacteria, which require three days to arrive at the conclusion (Puttaswamy S. et al., 2018). Although culture-based growth methods are the most widely used systems for AST, a few sophisticated high-end labs and hospitals employ automated test machines such as Vitek 2.0 from Biomeriux Technologies, Phoenix from BD etc. These instruments work on the measurement of light attenuation by optical scanner for growth/no growth of bacteria in micro-wells with different antibiotics.

[4] = tested on: P. aeruginosa; assay: VITEK automated susceptibility test; type: cell-based; details: for MIC: Pseudomonas aeruginosa, patient two sample infected with P. aeruginosa, read-out: MIC reported by VITEK
Text: as §3

[5] = tested on: P. aeruginosa; assay: CLSI reference method of microdilution; type: cell-based; details: for MIC: Pseudomonas aeruginosa, patient two sample infected with P. aeruginosa, read-out: MIC reported by Microdilution
[6] = tested on: E. coli; assay: Antibiotic susceptibility testing by the method of the present invention (AuNP-GOx-Ab nanoprobes, absorbance at 545 nm); type: cell-based; details: for Interpretation of results of the present method: Patient two urine sample infected with E. coli (10^4 CFU/mL), antibiotic at EUCAST breakpoint concentration of Table 1
Experimental: as §1
(§4) 250 μL of the recovered bacteria-nanoprobe complexes were then incubated at 37° C. for 10 minutes with 50 μL glucose solution (final concentration 100 mM) for production of hydrogen peroxide. After 10 minutes, 150 μL of seed solution containing about 16 nM gold nanoparticles having about 5 nm size and 150 μL of 1.25 mM HAuCl4 solution was added to induce growth of the seed particles and left for 20 minutes to allow growth of the seed particle. Finally, the growth of seed nanoparticles and the intensity of colour formed were determined by recording an absorption spectrum for each sample.
(§5) MIC determination protocol was tested on other antibiotics-bacteria combinations as well and percent reduction criterion was determined for each pair from repeated tests.

[7] = tested on: K. pneumoniae; assay: CLSI reference method of microdilution; type: cell-based; details: for MIC: Klebsiella pneumoniae; for Interpretation by Microdilution: EUCAST breakpoints
[8] = tested on: K. pneumoniae; assay: Antibiotic susceptibility testing by the method of the present invention (AuNP-GOx-Ab nanoprobes, absorbance at 545 nm); type: cell-based; details: for MIC: Klebsiella pneumoniae, MIC = dilution showing the criterion % reduction compared to no antibiotics (34% levofloxacin, 23% amikacin), read-out: MIC obtained with the diagnostic method assay; for Interpretation of results of the present method: Patient two urine sample infected with K. pneumoniae, antibiotic at EUCAST breakpoint concentration of Table 1
Experimental: as §1
as §4, with “sample. FIG. 8(a) provides graphic representation of UV-Visible spectra for antibiotic sensitivity test of patient urine samples with different antibiotics, according to an embodiment of the present invention.” for “sample.”
The antibacterial susceptibility test of patient two urine sample containing K. pneumoniae towards the antibiotics ampicillin, gentamicin, levofloxacin and imipenem was performed as mentioned above.
as §5

[9] = tested on: E. coli; assay: CLSI reference method of microdilution; type: cell-based; details: for MIC: Escherichia coli
[10] = tested on: K. pneumoniae; assay: VITEK automated susceptibility test; type: cell-based; details: for MIC: Klebsiella pneumoniae, patient two urine sample infected with K. pneumoniae, read-out: MIC reported by VITEK
Text: as §3

[11] = tested on: multi-drug resistant P. aeruginosa; assay: Antibiotic susceptibility testing by the method of the present invention (AuNP-GOx-Ab nanoprobes, absorbance at 545 nm); type: cell-based; details: Patient two sample infected with multi-drug resistant P. aeruginosa, antibiotic at EUCAST breakpoint concentration of Table 1
Experimental: as §1, §2

[12] = glucose 100 mM, 37° C., 10 minutes
Experimental: Varying concentrations of GOx, namely, 6 mU, 10 mU and 30 mU and glucose (100 mM) were incubated at 37° C. for 10 minutes and the hydrogen peroxide produced was determined using a H2O2 assay kit (MAK165-SIGMA-ALDRICH).

[13] = patient two urine sample infected with E. coli
[14] = Patient one urine sample infected with E. coli
[15] = Clinical isolate K. pneumoniae, read-out: MIC obtained with CLSI reference method of microdilution
[16] = Patient two urine sample infected with K. pneumoniae
[17] = Patient two sample infected with P. aeruginosa
[18] = patient two urine sample infected with K. pneumoniae, read-out: MIC reported by Microdilution

CN[C@H](CC(C)C)C(=O)N[C@H]1C(=O)N[C@@H](CC(N)=O)C(=O)N[C@H]2C(=O)N[C@H]3C(=O)N[C@H](C(=O)N[C@H](C(=O)O)c4cc(O)cc(O)c4-c4cc3ccc4O)[C@H](O)c3ccc(c(Cl)c3)Oc3cc2cc(c3O[C@@H]2O[C@H](CO)[C@@H](O)[C@H](O)[C@H]2O[C@H]2C[C@](C)(N)[C@H](O)[C@H](C)O2)Oc2ccc(cc2Cl)[C@H]1O [Vancomycin]
MIC [1]: 1 µg/mL (≈ 0.69 µM) | Interpretation by Microdilution ([1]; Patient two sample infected with E. faecalis, EUCAST breakpoints): Sensitive | Interpretation of results of the present method [2]: Sensitive | Interpretation of results of the present method ([2]; listed as vancomycin): sensitive

O=C1CN(/N=C/c2ccc([N+](=O)[O-])o2)C(=O)N1 [Nitrofurantoin]
MIC [3, 13]: ≤ 32 µg/mL

C[C@H]1COc2c(N3CCN(C)CC3)c(F)cc3c(=O)c(C(=O)O)cn1c23 [Levofloxacin]
MIC [4]: ≥ 8 µg/mL | MIC [3, 13]: ≥ 8 µg/mL | MIC reported by VITEK [3, 14]: >=8 μg/mL | MIC [5]: ≥ 32 µg/mL | MIC (concentration at which signal intensity shows 34% reduction against the control) ([6]; E. coli as printed in text, present method, 34% reduction criterion): 16 µg/mL | MIC [7, 15]: 16 µg/mL (≈ 44.3 µM) | MIC ([8]; Clinical isolate K. pneumoniae): 16 µg/mL | MIC ([9]; patient two urine sample infected with E. coli, read-out: MIC reported by Microdilution): 64 µg/mL (≈ 177 µM) | MIC reported by Microdilution [9, 14]: 64 µg/mL (≈ 177 µM)

Gentamicin
Interpretation by VITEK [10, 16]: Sensitive | MIC reported by VITEK [10, 16]: <=1 μg/mL | Interpretation by VITEK [4, 17]: Resistant | MIC reported by VITEK [4, 17]: >=16 μg/mL | MIC reported by Microdilution [5, 17]: >=32 μg/mL | Interpretation by Microdilution ([5]; Patient two sample infected with P. aeruginosa, EUCAST breakpoints): Resistant | MIC reported by Microdilution [7, 16]: 0.5 µg/mL | Interpretation by Microdilution [7, 16]: Sensitive | Interpretation of results of the present method [11]: Resistant | Interpretation of results of the present method ([11]; listed as gentamicin): resistant | Interpretation of results of the present method [8]: Sensitive | Interpretation of results of the present method ([8]; listed as gentamicin): sensitive

glucose oxidase [GOx]
H2O2 generated ([12]; 6 mU GOx): 60.76 ± 7.6 µM | H2O2 generated ([12]; 10 mU GOx): 113.46 ± 48.1 µM | H2O2 generated ([12]; 30 mU GOx): 166.25 ± 5.3 µM

CC1(C)S[C@@H]2[C@H](NC(=O)[C@H](N)c3ccccc3)C(=O)N2[C@H]1C(=O)O [Ampicillin]
MIC [10]: > 16 µg/mL | Interpretation by VITEK [10, 16]: Resistant | Interpretation of results of the present method [6]: Sensitive | Interpretation of results of the present method ([6]; listed as ampicillin): sensitive | MIC [7, 18]: 256 µg/mL (≈ 733 µM) | Interpretation by Microdilution [7, 16]: Resistant | Interpretation of results of the present method [8]: Resistant | Interpretation of results of the present method ([8]; listed as ampicillin): resistant | Interpretation by Microdilution ([9]; Patient two urine sample infected with E. coli, EUCAST breakpoints): Sensitive

C[C@@H](O)[C@H]1C(=O)N2C(C(=O)O)=C(SCCN=CN)C[C@H]12 [Imipenem]
MIC [1]: 0.5 µg/mL (≈ 1.67 µM) | MIC [10]: ≤ 0.25 µg/mL | MIC [4]: ≥ 16 µg/mL | MIC ([3]; patient one urine sample infected with E. coli): ≤ 0.25 µg/mL | MIC [5]: ≥ 32 µg/mL | MIC ([6]; Escherichia coli, Clinical isolate E. coli, MIC = dilution showing the criterion % reduction compared to no antibiotics (55% for imipenem), read-out: MIC obtained with the diagnostic method assay): 0.125 µg/mL | MIC [7, 18]: 0.125 µg/mL (≈ 0.418 µM) | MIC ([9]; Clinical isolate E. coli, read-out: MIC obtained with CLSI reference method of microdilution): 0.25 µg/mL (≈ 0.835 µM) | MIC ([9]; patient one urine sample infected with E. coli, read-out: MIC reported by Microdilution): 0.25 µg/mL (≈ 0.835 µM)

NCC[C@H](O)C(=O)N[C@@H]1C[C@H](N)[C@@H](O[C@H]2O[C@H](CN)[C@@H](O)[C@H](O)[C@H]2O)[C@H](O)[C@H]1O[C@H]1O[C@H](CO)[C@@H](O)[C@H](N)[C@H]1O [Amikacin]
Interpretation by CLSI reference method of microdilution ([7]; Clinical isolate K. pneumoniae): Resistant | MIC [7, 15]: 128 µg/mL (≈ 219 µM) | Interpretation by diagnostic method ([8]; Clinical isolate K. pneumoniae): Resistant | MIC ([8]; Clinical isolate K. pneumoniae): 128 µg/mL

Reference: US20210278402A1, “METHOD FOR TESTING OF ANTIBIOTIC SUSCEPTIBILITY IN MICROORGANISMS” (MODULE INNOVATIONS PRIVATE LIMITED, priority 2018, published 2021)
